Like-named read-outs stand apart in the source and are kept apart here.

One series has as its system A375 cells. Nature of the series: Cytotoxicity test (8) of released drug. The series is classed as cell-based. The settings on record: Homo sapiens, A-375, 144 h, read-out: IC50, cytotoxic activity against the A375 cells. As for the experimental part: A375 cells (ATCC) were cultured in DMEM (GIBCO) containing 10% fetal bovine serum (MOREGATE) (hereinafter, referred to as a medium). The A375 cells were prepared to have a concentration of 4×10^4 cells/mL by using a medium, added at a concentration of 25 μL/well to a 96-well microplate for cell culture (CORNING) charged with […] of a medium, and cultured overnight. On the next day, each test substance diluted into 1000 nM, 200 nM, 40 nM, 8 nM, 1.6 nM, 0.32 nM, and 0.064 nM by using DMSO was added at a concentration of 0.5 μL/well to the microplate. DMSO was added at a concentration of 0.5 μL/well to test substance non-supplemented wells. The volume of the medium in each well was adjusted to 100 μL by the addition of 10 μL/well of a medium, and the cells were cultured under 5% CO2 at 37° C. for 6 days. After the culture, the microplate was taken out from the incubator and left standing at room temperature for 30 minutes. The culture solution was charged with an equal amount of CellTiter-Glo Luminescent Cell Viability Assay (Promega) and stirred. After the microplate was left standing at room temperature for 10 minutes, the amount of light emission was measured by using a plate reader. The IC50 value was calculated according to the following equation: IC50(nM)=antilog((50−d)×(LOG10b−LOG10a)/(d−c)+LOG10b) • a: Concentration a of the test substance • b: Concentration b of the test substance • c: Ratio of live cells supplemented with the test substance having the concentration a • d: Ratio of live cells supplemented with the test substance having the concentration b
The concentrations a and b establish the relation a>b crossing 50% ratio of live cells.
The survival rate of cells was calculated according to the following equation: Survival rate of cells (%)=a/b×100 • a: Average amount of light emission from the test substance-supplemented wells (n=2) • b: Average amount of light emission from the test substance non-supplemented wells (n=10)

For another series, the target named is T1, topoisomerase I (Homo sapiens, UniProt P11387).
T1 sequence (P11387 1-765): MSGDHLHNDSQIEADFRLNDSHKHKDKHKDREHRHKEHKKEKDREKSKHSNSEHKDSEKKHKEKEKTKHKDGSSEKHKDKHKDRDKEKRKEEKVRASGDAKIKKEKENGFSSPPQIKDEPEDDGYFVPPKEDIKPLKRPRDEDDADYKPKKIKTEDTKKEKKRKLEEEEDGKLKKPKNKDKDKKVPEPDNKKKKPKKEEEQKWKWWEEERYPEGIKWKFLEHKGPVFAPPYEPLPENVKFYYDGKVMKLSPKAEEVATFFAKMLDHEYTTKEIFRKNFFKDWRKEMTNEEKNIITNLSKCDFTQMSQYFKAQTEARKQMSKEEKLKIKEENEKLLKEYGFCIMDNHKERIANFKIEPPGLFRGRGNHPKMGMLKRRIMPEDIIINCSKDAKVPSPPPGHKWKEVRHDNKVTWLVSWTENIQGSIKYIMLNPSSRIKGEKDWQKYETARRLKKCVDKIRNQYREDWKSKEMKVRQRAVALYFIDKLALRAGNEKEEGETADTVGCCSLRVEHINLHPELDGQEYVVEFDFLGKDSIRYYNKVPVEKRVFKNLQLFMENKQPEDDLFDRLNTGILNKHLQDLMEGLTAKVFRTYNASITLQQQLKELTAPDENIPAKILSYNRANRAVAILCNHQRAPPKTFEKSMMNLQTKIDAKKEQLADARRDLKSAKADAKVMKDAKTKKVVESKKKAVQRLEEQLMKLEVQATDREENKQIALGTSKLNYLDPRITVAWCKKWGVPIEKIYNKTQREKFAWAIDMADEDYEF
To be noted: compared with SN-38 and topotecan; cited from earlier work.

Another series has as its system various cancer cells. To be noted: against various cancer cells; cited from earlier work.
For another series, the system named is human tumor. To be noted: human tumor subcutaneously transplanted mouse model; cited from earlier work.
Series [1] in a line: Self-degradation of released drug derivative with aminal structure. In kind it is physicochemical. To be noted: undergoes a self-degradation to release HO—CH2—C(═O)—(NH-DX).
For series [2], the system named is Human non-small cell lung cancer line Calu-6 cells. Nature of the series: Antitumor test (3), subcutaneously transplanted Calu-6. The settings on record: Calu-6 subcutaneous, female nude mice; 10 mg/kg intravenously at Days 11, 18, and 25 (qw×3); FIG. 19. The series is classed as in vivo, mouse.
Procedure: Assay and calculation expression: In all studies, the major axis and minor axis of tumor were measured twice a week by using an electronic digital caliper (CD-15C, Mitutoyo Corp.), and the tumor volume (mm^3) was calculated. The calculation expression is as shown below. Tumor volume (mm^3)=½×Major axis (mm)×[Minor axis (mm)]^2
Human non-small cell lung cancer line Calu-6 cells were purchased from ATCC (American Type Culture Collection). 5×10^6 cells suspended in physiological saline were subcutaneously transplanted to the right abdomen of each female nude mouse (Day 0), and the mice were randomly grouped at Day 11.
Series [3] deals with Human melanoma line A375 cells. The experiment in a line: Antitumor test (1), subcutaneously transplanted A375. The series is classed as in vivo, mouse. To be noted: A375 subcutaneous, female nude mice; 10 mg/kg intravenously at Days 11, 18, and 25; FIG. 17. As for the experimental part: Mouse: 5- to 6-week-old female BALB/c nude mice (Charles River Laboratories Japan, Inc.) were acclimatized for 4 to 7 days under SPF conditions before use in the experiment. The mice were fed with sterilized solid feed (FR-2, Funabashi Farms Co., Ltd) and given sterilized tap water (prepared by the addition of 5 to 15 ppm sodium hypochlorite solution). Assay and calculation expression: In all studies, the major axis and minor axis of tumor were measured twice a week by using an electronic digital caliper (CD-15C, Mitutoyo Corp.), and the tumor volume (mm^3) was calculated. The calculation expression is as shown below. Tumor volume (mm^3)=1⁄2×Major axis (mm)×[Minor axis (mm)]^2 All of the antibody-drug conjugates were diluted with physiological saline (Otsuka Pharmaceutical Factory, Inc.) and used at a volume of 10 mL/kg for intravenous administration to the tail of each mouse. Human melanoma line A375 cells were purchased from ATCC (American Type Culture Collection). 8×10^6 cells suspended in physiological saline were subcutaneously transplanted to the right abdomen of each female nude mouse (Day 0), and the mice were randomly grouped at Day 11.

Turning to `CC[C@@]1(O)C(=O)OCc2c1cc1n(c2=O)Cc2c-1nc1cc(F)c(C)c3c1c2[C@@H](NC(=O)CCCN)CC3` [Example (1), 4-Amino-N-[(1S,9S)-9-ethyl-5-fluoro-9-hydroxy-4-methyl-10,13-dioxo-2,3,9,10,13,15-hexahydro-1H,12H-benzo[de]pyrano[3′,4′:6,7]indolizino[1,2-b]quinolin-1-yl]butanamide], the IC50 in the series with A375 cells was in the range of 10 to 100 nM.

With `CC[C@@]1(O)C(=O)OCc2c1cc1n(c2=O)Cc2c-1nc1cc(F)c(C)c3c1c2[C@@H](NC(=O)CO)CC3` [Example (75), N-[(1S,9S)-9-ethyl-5-fluoro-9-hydroxy-4-methyl-10,13-dioxo-2,3,9,10,13,15-hexahydro-1H,12H-benzo[de]pyrano[3′,4′:6,7]indolizino[1,2-b]quinolin-1-yl]-2-hydroxyacetamide], the IC50 in the series on A375 cells is 0.1 to 1 nM.

As to `CC[C@@]1(O)C(=O)OCc2c1cc1n(c2=O)Cc2c-1nc1cc(F)c(C)c3c1c2[C@@H](N)CC3` [exatecan, (1S,9S)-1-amino-9-ethyl-5-fluoro-2,3-dihydro-9-hydroxy-4-methyl-1H,12H-benzo[de]pyrano[3′,4′:6,7]indolizino[1,2-b]quinolin-10,13(9H,15H)-dione], in the series on A375 cells (released drug, cultured 6 days, CellTiter-Glo), the IC50 is 0.1 to 1 nM. Further, at topoisomerase I, the “inhibitory activity on topoisomerase I” value is listed as “higher than SN-38”. In addition, the “in vitro cytocidal activity” value in the series with various cancer cells is “higher in vitro cytocidal activity”. The antitumor effect entry in the series with human tumor is on record as “potent antitumor effect”.

For the molecule `CC[C@@]1(O)C(=O)OCc2c1cc1n(c2=O)Cc2c-1nc1cc(F)c(C)c3c1c2[C@@H](NC(=O)COCCN)CC3` [Example (42), 2-(2-Aminoethoxy)-N-[(1S,9S)-9-ethyl-5-fluoro-9-hydroxy-4-methyl-10,13-dioxo-2,3,9,10,13,15-hexahydro-1H,12H-benzo[de]pyrano[3′,4′:6,7]indolizino[1,2-b]quinolin-1-yl]acetamide], the IC50 in the series with A375 cells lay in the range of 1 to 10 nM.

For the molecule `CCC1(O)C(=O)OCc2c1cc1n(c2=O)Cc2c-1nc1cc(F)c(C)c3c1c2C(NC(=O)COCN)CC3` (stereo not shown) [NH2—CH2—O—CH2—C(═O)—(NH-DX)], in series [1], the “stability of the aminal structure in the molecule” value is “unstable”.

B1: M30-H1-L4P antibody: M30-H1-L4 antibody with the modification of a glycan regulated by defucosylation (antibody, chains of the INN, looked up, V domains shown)
VH: QVQLVQSGAEVKKPGSSVKVSCKASGYTFTNYVMHWVRQAPGQGLEWMGYINPYNDDVKYNEKFKGRVTITADESTSTAYMELSSLRSEDTAVYYCARWGYYGSPLYYFDYWGQGTLVTVSS
VL: EIVLTQSPATLSLSPGERATLSCRASSRLIYMHWYQQKPGQAPRPLIYATSNLASGIPARFSGSGSGTDFTLTISSLEPEDFAVYYCQQWNSNPPTFGQGTKVEIK
modifications: defucosylated
notes: M30-H1-L4 antibody with the modification of a glycan regulated by defucosylation
With B1, the tumor volume entry in series [2] and in series [3] was “progression of tumor growth” in each case.

(Values after patent publication US12186310B2, “Antibody-drug conjugate” (DAIICHI SANKYO COMPANY, LIMITED, priority 2012, dated 2025).)
